Source: patent publication US7419965B2, “Nucleotide lipid ester derivatives” (Heidelberg Pharma AG, priority 2003, dated 2008)

Legend:
Parameters in all cases: species or system nude mice
[1] = test system: human breast carcinoma xenograft MDA-MB-231; test: Antitumor activity in human breast carcinoma xenograft model (MDA-MB-231) in vivo; details: for Tumor inhibition: day 49, vs vehicle control; for Tumor volume (median): orally once daily days 21-25 and 28-32, day 49
Method: The antitumor activity of nucleotide conjugate and its corresponding nucleoside has been compared in the human breast carcinoma xenograft MDA-MB-231 model in nude mice.
Tumor bearing mice were randomized on day 21 after MDA-MB-231 tumor cell inoculation and were distributed to treatment groups of 9 animals per group. Treatment was started on day 21. At this time point the animals had well vascularized tumors of about 400 mg. The animals were treated orally once daily for 2 weeks with nucleotide conjugate and its corresponding nucleoside on days 21-25 and 28-32. Doses ranged from 6.25% to 50% of the Maximum Tolerable Doses (MTD's). Control animals were treated with the solvent (vehicle) only. […]

[2] = test system: human colon carcinoma xenograft HCT-15; test: Antitumor activity in human colon carcinoma xenograft model (HCT-15) in vivo; details: for Tumor weight (median): ip once daily for 5 days from day 8, day 28; for Tumor inhibition: ip once daily for 5 days, day 28, vs vehicle control
Method: The antitumor activity of the nucleotide conjugate and its corresponding nucleoside has been compared in the human colon carcinoma xenograft HCT-15 model in nude mice.
Tumor bearing mice were randomized on day 7 after HCT-15 tumor cell inoculation and were distributed to treatment groups of 9 animals per group. Treatment was started on day 8. The animals were treated intraperitoneally (ip) once daily for 5 consecutive days with the nucleotide conjugate or the nucleoside. Dosages included 50 and 25% of the Maximum Tolerable Doses (MTD′s). Control animals were injected with the corresponding solvents (Vehicle 1 or 2). On day 28, the primary tumors were explanted and the tumor weights were determined.
(§1) Tumor bearing mice were distributed to treatment groups of 9-10 animals per group. Treatment Treatment cycle(s)(one or two) were performed consisting of once daily intraperitoneal administrations for 5 consecutive days. Dosages were in the range of 6.25% and 100% of the Maximum Tolerated Doses (MTD's). Control animals were treated with solvent (vehicle) only, The percentage of tumor inhibition refers to the median tumor size of the vehicle treated control group and dose groups at the end of each experiment.

[3] = test system: human ovarian carcinoma xenograft SKOV-3; test: Antitumor activity in human ovarian carcinoma xenograft model (SKOV-3) in vivo; details: for Tumor inhibition: end of treatment period (day 17), vs vehicle control; for Tumor volume (median): ip once daily day 6-10 and 13-17, end of treatment (day 17)
Method: The antitumor activity of nucleotide conjugate and nucleoside has been compared in the human ovarian carcinoma xenograft SKOV-3 model in nude mice.
Tumor bearing mice were randomized on day 6 after SKOV-3 tumor cell inoculation and were distributed to treatment groups of 9 animals per group. Treatment was started on day 6. The animals were treated intraperitoneally (ip) once daily on day 6-10 and 13-17 with nucleotide conjugate or nucleoside. Dosages ranged between 6.25 and 100% of the Maximum Tolerable Doses (MTD's). Control animals were treated with solvent (vehicle) only.
as §1

[4] = test system: human prostate carcinoma xenograft PC-3; test: Antitumor activity in human prostate carcinoma xenograft model (PC-3) in vivo; details: for Tumor inhibition: day 52, vs vehicle control; for Tumor weight (median): ip once daily for 5 days from day 7, day 52
Method: The antitumor activity of nucleoside conjugate and nucleoside has been compared in the human prostate carcinoma xenograft PC-3 model in nude mice.
Tumor bearing mice were randomized on day 7 after PC-3 tumor cell inoculation and were distributed to treatment groups of n=10 animals per group. Treatment was started on day 7. The animals were treated intraperitoneally (ip) once daily for 5 consecutive days with nucleotide conjugate or nucleoside. Dosages included 100 and 50% of the Maximum Tolerable Doses (MTD's). Control animals were treated with the corresponding solvent (vehicle) only. On day 52, the primary tumors were explanted and the tumor weights were determined.
as §1

[5] = test system: human pancreatic carcinoma xenograft AspC1; test: Antitumor activity in human pancreatic carcinoma xenograft model (AspC1) in vivo; details: for Tumor inhibition: day 30, vs vehicle control; for Tumor weight (median): ip once daily day 6-10 and 20-23, day 30
Method: The antitumor activity of nucleotide conjugate and nucleoside has been compared in the human pancreatic carcinoma xenograft AspC1 model in nude mice.
Tumor bearing mice were randomized on day 6 after AspC1 tumor cell inoculation and were distributed to treatment groups of 10 animals per group. Treatment was started on day 6. The animals were treated intraperitoneally (ip) once daily on day 6-10 and 20-23 with nucleotide conjugate or nucleoside. Dosages included 100 and 50% of the Maximum Tolerable Doses (MTD's). Control animals were treated with solvent (vehicle) only.
as §1

[6] = test system: human cervix carcinoma xenograft KB-3-1; test: Antitumor activity in human cervix carcinoma xenograft model (KB-3-1) in vivo; details: for Tumor inhibition: day 29, vs vehicle control; for Tumor volume (median): ip once daily days 8-12, day 29
Method: The antitumor activity of nucleotide conjugate and nucleoside has been compared in the human cervix carcinoma xenograft KB-3-1 model in nude mice.
Tumor bearing mice were randomized on day 8 after KB-3-1 tumor cell inoculation and were distributed to treatment groups of 9 animals per group. Treatment was started on day 8. The animals were treated intraperitoneally (ip) once daily for 5 consecutive days (days 8-12) with nucleotide conjugate or nucleoside. Dosages included 100 and 50% of the Maximum Tolerable Doses (MTD's). Control animals were injected with solvent (Vehicle).
as §1

[7] = 6.25% MTD (nucleoside 2.5, conjugate 12.5 mg/kg)
[8] = 12.50% MTD (nucleoside 5.0, conjugate 25.0 mg/kg)
[9] = 25.00% MTD (nucleoside 10.0, conjugate 50.0 mg/kg)
[10] = 50.00% MTD (nucleoside 20.0, conjugate 100.0 mg/kg)
[11] = 25% MTD (nucleoside 20, conjugate 63 mg/kg/injection)
[12] = 50% MTD (nucleoside 40, conjugate 125 mg/kg/injection)
[13] = HCT-15, Dose 50.00 % MTD as printed in summary table
[14] = HCT-15, Dose 100.00 % MTD as printed in summary table
[15] = 25% MTD (nucleoside 7.5, conjugate 18.8 mg/kg/injection)
[16] = 50% MTD (nucleoside 15.0, conjugate 37.5 mg/kg/injection)
[17] = 100% MTD (nucleoside 30.0, conjugate 75.0 mg/kg/injection)
[18] = 50% MTD (nucleoside 20, conjugate 50 mg/kg/injection)
[19] = 100% MTD (nucleoside 40, conjugate 100 mg/kg/injection)

## Nc1nc(Cl)nc2c1ncn2[C@@H]1O[C@H](CO)[C@@H](O)[C@@H]1F [Nucleoside, 2-Chloro-9-(2′-deoxy-2′-fluoro-β-D arabinofuranosyl)adenine, reference compound]
[1]; [7]
  Tumor inhibition: 46%
  Tumor volume (median): 1862 mm^3
[1]; [8]
  Tumor inhibition: 84%
  Tumor volume (median): 550 mm^3
[1]; [9]
  Tumor inhibition: 95%
  Tumor volume (median): 172 mm^3
[1]; [10]
  Tumor inhibition: 97%
  Tumor volume (median): 108 mm^3
[2]; [11]
  Tumor weight (median): 431 mg
  Tumor inhibition: 25%
[2]; [12]
  Tumor weight (median): 329 mg
  Tumor inhibition: 42%
[2]; [13]
  Tumor inhibition (summary table): 25%
[2]; [14]
  Tumor inhibition (summary table): 42%
[3]; [15]
  Tumor inhibition: 37%
  Tumor volume (median): 162 mm^3
[3]; [16]
  Tumor inhibition: 58%
  Tumor volume (median): 108 mm^3
[3]; [17]
  Tumor inhibition: 51%
  Tumor volume (median): 126 mm^3
[4]; [18]
  Tumor inhibition: 40%
  Tumor weight (median): 303 mg
[4]; [19]
  Tumor inhibition: 60%
  Tumor weight (median): 202 mg
[5]; [16]
  Tumor inhibition: 30%
  Tumor weight (median): 160 mg
[5]; [17]
  Tumor inhibition: 35%
  Tumor weight (median): 150 mg
[6]; [18]
  Tumor inhibition: 68%
  Tumor volume (median): 1059 mm^3
[6]; [19]
  Tumor inhibition: 49%
  Tumor volume (median): 1705 mm^3

## CCCCCCCCCCCCSCC(COP(=O)(O)OC[C@H]1O[C@@H](n2cnc3c(N)nc(Cl)nc32)[C@@H](F)[C@@H]1O)OCCCCCCCCCC (stereo partly drawn) [Nucleotide conjugate, [2-Chloro-9-(2′-deoxy-2′-fluoro-β-D arabinofuranosyl)adenine]-5′-phosphoric acid-(3-dodecylmercapto-2-decyloxy)propyl ester]
[1]; [7]
  Tumor inhibition: 63%
  Tumor volume (median): 1267 mm^3
[1]; [8]
  Tumor inhibition: 94%
  Tumor volume (median): 196 mm^3
[1]; [9]
  Tumor inhibition: 97%
  Tumor volume (median): 108 mm^3
[1]; [10]
  Tumor inhibition: 99%
  Tumor volume (median): 51 mm^3
[1]; at all doses
  Antitumor efficacy compared with the corresponding nucleoside: significantly (p <0.05) higher
[1]; conclusion of summary, MDA-MB-231
  Activity relative to nucleoside (conclusion): Superior activity
[2]; [11]
  Tumor weight (median): 257 mg
  Tumor inhibition: 62%
[2]; [12]
  Tumor weight (median): 16 mg
  Tumor inhibition: 98%
[2]; [13]
  Tumor inhibition (summary table): 62%
[2]; [14]
  Tumor inhibition (summary table): 98%
[2]; at both doses
  Antitumor efficacy compared with the corresponding nucleoside: significantly (p<0.01) higher
[2]; conclusion of summary, human colon carcinoma xenograft
  Activity relative to nucleoside (conclusion): Superior activity
[3]; [15]
  Tumor inhibition: 44%
  Tumor volume (median): 144 mm^3
[3]; [16]
  Tumor inhibition: 58%
  Tumor volume (median): 108 mm^3
[3]; [17]
  Tumor inhibition: 75%
  Tumor volume (median): 63 mm^3
[3]; at MTD
  Antitumor efficacy compared with the nucleoside: significantly higher (p<0.01)
[3]; conclusion of summary, SKOV-3
  Activity relative to nucleoside (conclusion): Superior activity
[4]; [18]
  Tumor inhibition: 82%
  Tumor weight (median): 92 mg
[4]; [19]
  Tumor inhibition: 87%
  Tumor weight (median): 64 mg
[4]; at both doses
  Antitumor efficacy compared with Nucleoside: significantly higher (p<0.01)
[4]; conclusion of summary, PC-3
  Activity relative to nucleoside (conclusion): Superior activity
[5]; [16]
  Tumor inhibition: 65%
  Tumor weight (median): 80 mg
[5]; [17]
  Tumor inhibition: 96%
  Tumor weight (median): 10 mg
[5]; at both doses
  Antitumor efficacy compared with Nucleoside: significantly higher (p<0.01)
[5]; conclusion of summary, AspC1
  Activity relative to nucleoside (conclusion): Superior activity
[6]; [18]
  Tumor inhibition: 74%
  Tumor volume (median): 877 mm^3
[6]; [19]
  Tumor inhibition: 97%
  Tumor volume (median): 104 mm^3
[6]; at the MTD
  Antitumor efficacy compared with Nucleoside: significantly higher (p<0.01)
[6]; conclusion of summary, KB-3-1
  Activity relative to nucleoside (conclusion): Superior activity
